Source: patent US6992079B2, “Substituted 11-phenyl-dibenzazepine compounds useful for the treatment or prevention of diseases characterized by abnormal cell proliferation” (President Fellows of Harvard College, priority 1997, dated 2006)
Where two headings read alike, the source gives them in different places.

What was measured:
[1] = test system: NIH 3T3 mouse fibroblast cells; test: Mitogenic assay (mitogen-induced cell proliferation); assay type: cell-based; settings: Mus musculus, NIH3T3, 10 μM compound
[2] = test system: squamous cell carcinoma (KLN-205) cells; test: Tumor growth in murine squamous cell carcinoma model; assay type: in vivo, mouse; settings: KLN-205; subcutaneous injection or oral administration of 80 mg/kg/day for 30 days
[3] = test system: H460 large cell lung carcinoma; test: Mouse xenograft tumor growth; assay type: in vivo, CD-1 nude mice
[4] = test system: A2058 metastatic melanoma; test: Mouse xenograft tumor growth; assay type: in vivo, CD-1 nude mice
Protocol: NCI-A2058 human melanoma cell line was grown as monolayer culture in Minimum essential medium (D-MEM) supplemented with 10% fetal bovine serum (FBS), 0.1 mM non-essential amino acid, 1.0 mM sodium pyruvate, 100U/ml penicillin, 100 μg/ml streptomycin and 0.25 μg/ml amphotericin B and L-alanyl-1-glutamine (2 mM) at 37° C. in an atmosphere of 5% CO2 in air. The tumor cells were routinely subcultured twice weekly by trypsin-EDTA treatment. The cells were harvested from subconfluent logarithmically growing culture by treatment with typsin-EDTA and counted for tumor inoculation.
An acclimation period of at least 7 days were allowed between animal receipt and commence of tumor inoculation. When the female CD-1 nude mice were more than 6-7 weeks of age (20-25 g), each mouse was subcutaneously injected with 5.0×10^6 NCI-A2058 human melanoma cells in 0.1 ml of PBS solution at the right flank of the mice to induce tumor growth.

[5] = test system: RL-60 (TS); test: In-Vitro Testing SRB panel: Leukemia; assay type: cell-based
[6] = test system: K-562; test: In-Vitro Testing SRB panel: Leukemia; assay type: cell-based
[7] = test system: SR; test: In-Vitro Testing SRB panel: Leukemia; assay type: cell-based
[8] = test system: NCI-H226; assay type: cell-based; settings: NCI-H226
[9] = test system: NCI-H460; assay type: cell-based; settings: NCI-H460
[10] = test system: NCI-H522; assay type: cell-based; settings: NCI-H522
[11] = test system: SF-295; test: In-Vitro Testing SRB panel: CNS Cancer; assay type: cell-based; settings: SF-295
[12] = test system: SNB-19; test: In-Vitro Testing SRB panel: CNS Cancer; assay type: cell-based; settings: SNB-19
[13] = test system: LOX IMVI; test: In-Vitro Testing SRB panel: Melanoma; assay type: cell-based
[14] = test system: SK-MEL-2; test: In-Vitro Testing SRB panel: Melanoma; assay type: cell-based; settings: SK-MEL-2
[15] = test system: UACC-62; test: In-Vitro Testing SRB panel: Melanoma; assay type: cell-based; settings: UACC-62
[16] = test system: NCI/ADR-RES; test: In-Vitro Testing SRB panel: Breast Cancer; assay type: cell-based
[17] = test system: T-47D; test: In-Vitro Testing SRB panel: Breast Cancer; assay type: cell-based
[18] = Homo sapiens, read-out: LC50 (the source's name)

## COc1cccc2c1C(c1ccccc1Cl)c1cc(Cl)ccc1N(C(=O)c1ccc([N+](=O)[O-])cc1)C2 (stereo not drawn) [Compound 31]
[1]
  inhibition at 10 µM: 99%
[2]
  tumor growth: significantly inhibited tumor growth
[3]
  tumor growth: showed inhibition of tumor growth
[4]
  tumor growth: showed inhibition of tumor growth
[5]; Homo sapiens
  GI50: 0.512 µM
[5]; Homo sapiens, RL-60 (TB), read-out: LC50 (the source's name)
  CC50: > 100 µM
[5]; RL-60 (TB)
  TGI: 1.28E−05 Molar
[5]; RL-60 (TB), log10 conc -4 Molar
  Percent Growth: −19%
[5]; RL-60 (TB), log10 conc -5 Molar
  Percent Growth: 3%
[5]; RL-60 (TB), log10 conc -6 Molar
  Percent Growth: 39%
[5]; RL-60 (TB), log10 conc -7 Molar
  Percent Growth: 77%
[5]; RL-60 (TB), log10 conc -8 Molar
  Percent Growth: 81%
[6]; Homo sapiens, K562
  GI50: 0.506 µM
[6]; Homo sapiens, K562, K-562, read-out: LC50 (the source's name)
  CC50: > 100 µM
[6]; K-562
  TGI: >1.00E−04 Molar
[6]; K-562, log10 conc -4 Molar
  Percent Growth: 15%
[6]; K-562, log10 conc -5 Molar
  Percent Growth: 24%
[6]; K-562, log10 conc -6 Molar
  Percent Growth: 39%
[6]; K-562, log10 conc -7 Molar
  Percent Growth: 77%
[6]; K-562, log10 conc -8 Molar
  Percent Growth: 93%
[7]
  TGI: >1.00E−04 Molar
[7]; Homo sapiens
  GI50: 0.128 µM
[7]; [18]
  CC50: > 100 µM
[7]; log10 conc -4 Molar
  Percent Growth: 4%
[7]; log10 conc -5 Molar
  Percent Growth: 7%
[7]; log10 conc -6 Molar
  Percent Growth: 13%
[7]; log10 conc -7 Molar
  Percent Growth: 54%
[7]; log10 conc -8 Molar
  Percent Growth: 94%
[8]; Homo sapiens
  GI50: 3.67 µM
[8]; [18]
  CC50: > 100 µM
[8]
  TGI: >1.00E−04 Molar
[8]; log10 conc -4 Molar
  Percent Growth: 13%
[8]; log10 conc -5 Molar
  Percent Growth: 34%
[8]; log10 conc -6 Molar
  Percent Growth: 71%
[8]; log10 conc -7 Molar
  Percent Growth: 90%
[8]; log10 conc -8 Molar
  Percent Growth: 90%
[9]; Homo sapiens
  GI50: 0.595 µM
[9]; [18]
  CC50: > 100 µM
[9]
  TGI: 2.81E−05 Molar
[9]; log10 conc -4 Molar
  Percent Growth: −16%
[9]; log10 conc -5 Molar
  Percent Growth: 10%
[9]; log10 conc -6 Molar
  Percent Growth: 36%
[9]; log10 conc -7 Molar
  Percent Growth: 99%
[9]; log10 conc -8 Molar
  Percent Growth: 96%
[10]; Homo sapiens
  GI50: 7.48 µM
[10]; [18]
  CC50: > 100 µM
[10]
  TGI: >1.00E−04 Molar
[10]; log10 conc -4 Molar
  Percent Growth: 36%
[10]; log10 conc -5 Molar
  Percent Growth: 44%
[10]; log10 conc -6 Molar
  Percent Growth: 89%
[10]; log10 conc -7 Molar
  Percent Growth: 88%
[10]; log10 conc -8 Molar
  Percent Growth: 99%
[11]; Homo sapiens
  GI50: 13.5 µM
[11]; [18]
  CC50: > 100 µM
[11]
  TGI: >1.00E−04 Molar
[11]; log10 conc -4 Molar
  Percent Growth: 34%
[11]; log10 conc -5 Molar
  Percent Growth: 52%
[11]; log10 conc -6 Molar
  Percent Growth: 75%
[11]; log10 conc -7 Molar
  Percent Growth: 98%
[11]; log10 conc -8 Molar
  Percent Growth: 97%
[12]; Homo sapiens
  GI50: 2.61 µM
[12]; [18]
  CC50: > 100 µM
[12]
  TGI: 5.66E−05 Molar
[12]; log10 conc -4 Molar
  Percent Growth: −5%
[12]; log10 conc -5 Molar
  Percent Growth: 16%
[12]; log10 conc -6 Molar
  Percent Growth: 74%
[12]; log10 conc -7 Molar
  Percent Growth: 99%
[12]; log10 conc -8 Molar
  Percent Growth: 102%
[13]
  TGI: >1.00E−04 Molar
[13]; Homo sapiens
  GI50: 0.617 µM
[13]; [18]
  CC50: > 100 µM
[13]; log10 conc -4 Molar
  Percent Growth: 13%
[13]; log10 conc -5 Molar
  Percent Growth: 12%
[13]; log10 conc -6 Molar
  Percent Growth: 39%
[13]; log10 conc -7 Molar
  Percent Growth: 93%
[13]; log10 conc -8 Molar
  Percent Growth: 97%
[14]; Homo sapiens
  GI50: 79.3 µM
[14]; [18]
  CC50: > 100 µM
[14]
  TGI: >1.00E−04 Molar
[14]; log10 conc -4 Molar
  Percent Growth: 47%
[14]; log10 conc -5 Molar
  Percent Growth: 78%
[14]; log10 conc -6 Molar
  Percent Growth: 102%
[14]; log10 conc -7 Molar
  Percent Growth: 99%
[14]; log10 conc -8 Molar
  Percent Growth: 101%
[15]; Homo sapiens
  GI50: 0.43 µM
[15]; [18]
  CC50: > 100 µM
[15]
  TGI: >1.00E−04 Molar
[15]; log10 conc -4 Molar
  Percent Growth: 14%
[15]; log10 conc -5 Molar
  Percent Growth: 32%
[15]; log10 conc -6 Molar
  Percent Growth: 36%
[15]; log10 conc -7 Molar
  Percent Growth: 74%
[15]; log10 conc -8 Molar
  Percent Growth: 90%
[16]
  TGI: >1.00E−04 Molar
[16]; Homo sapiens
  GI50: 3.88 µM
[16]; [18]
  CC50: > 100 µM
[16]; log10 conc -4 Molar
  Percent Growth: 12%
[16]; log10 conc -5 Molar
  Percent Growth: 27%
[16]; log10 conc -6 Molar
  Percent Growth: 84%
[16]; log10 conc -7 Molar
  Percent Growth: 101%
[16]; log10 conc -8 Molar
  Percent Growth: 95%
[17]; Homo sapiens, T47D
  GI50: 2.97 µM
[17]; Homo sapiens, T47D, T-47D, read-out: LC50 (the source's name)
  CC50: > 100 µM
[17]; T-47D
  TGI: >1.00E−04 Molar
[17]; T-47D, log10 conc -4 Molar
  Percent Growth: 27%
[17]; T-47D, log10 conc -5 Molar
  Percent Growth: 34%
[17]; T-47D, log10 conc -6 Molar
  Percent Growth: 65%
[17]; T-47D, log10 conc -7 Molar
  Percent Growth: 90%
[17]; T-47D, log10 conc -8 Molar
  Percent Growth: 92%
